Measurements taken from patent US20150057316A1, “NOVEL SULFONATE-BASED TRIMEBUTINE SALTS” (GICARE PHARMA INC., priority 2012, published 2015).

What was measured:
Beagle dogs [1] = test: i.v./p.o. cross over study in dogs, toxicological assessment; format: in vivo; settings: 2 mg/kg i.v. or 10 mg/kg p.o.
Protocol: (§1) Trimebutine 3-thiocarbamoyl-benzenesulfonate was administered as a cross over design once, each dosing separated by at least a 7-day washout period. During this study, assessments included mortality checks, clinical observations, and body weights. Feces and urine samples were collected up to 48 hr post-administration. Blood samples were also collected for pharmacokinetic evaluations on Days 1 and 8 at 10 time points. Pharmacokinetic data are presented in the two following Figures.

Beagle dogs [2] = test: MTD determination following p.o. administration in dogs; format: in vivo
Protocol: For MTD determination, the compound was administered once on each occasion by oral gavage, in an incremental fashion to animals, until the maximum tolerated dose is considered to have been reached. This dose was established at 2,000 mg/kg, i.e., the highest dose administered in animals. […] The animal was back to normal activity levels approximately 1 hr post dosing.

[3] = recovery of counter-ion and metabolites in urine and feces of dogs; format: in vivo; settings: for mean total recovery of the unchanged counter-ion: urine and feces up to 48 hr
Protocol: as §1
After proper preparation of the urine and feces samples, 3-thiocarbamoyl-benzenesulfonate counter-ion and its two potential metabolites (3-cyanobenzenesulfonate and 3-sulfobenzoate) were assessed using a LC/MS/MS method, with analysis by MRM, ESI-. Calibration curves were prepared for each analyte in blank feces homogenate, following the same procedure.

[4] = accelerated stability protocol; format: physicochemical; settings: Polymorph B, 40±2° C., 75±5% RH, six months
Protocol: The long-term stability of Example 20 was assessed using an accelerated stability protocol. For this purpose, samples of Example 20—Polymorph B was placed in borosilicate vials polyethylene plastic bags, sealed in an aluminum bag, and placed in a fiber drum with desiccant. The samples where then subjected to 40±2° C. with 75±5% relative humidity (RH), and stability was monitored at time 0, 1, 2, 3 and 6 months using a standardized HPLC method.

male Sprague-Dawley rats = test: preliminary toxicological evaluation following p.o. administration in rats; format: in vivo
Protocol: A preliminary toxicological evaluation of the compound was done in 250-300 g male Sprague-Dawley rats. Animals were randomized into one of three dosing group, i.e. 250, 500 or 1,000 mg/kg administered by oral gavage. Following administration of the test article, animals were observed hourly for the first 8 hr post-dosing for clinical signs and twice daily thereafter until termination on Day 7. Three animals per group were sacrificed by exsanguination under general anesthesia at 24-hr post dosing or on Day 7 and a gross necropsy was performed in all animals. Additionally, all three rats having received the 500 mg/kg dose and scheduled for sacrifice on Day 7 were placed in individual metabolic cages immediately following test article administration, in order to collect feces and urine during 48 hr. Blood samples were collected terminally from each rat for hematology and serum chemistry evaluation.

[5] = test system: colorectal distension induced pain; test: electromyographic colorectal distension (CRD) induced pain model; format: in vivo, mice; settings: for VMR response to colorectal distension compared to the control group: mice, 30 and 60 mg/kg oral
Excerpt: The purpose was to evaluate the antinociceptive effects of Example 20 in an electromyographic colorectal distension (CRD) induced pain model. This model is recognized by experts in the field to be less subjective than the rat Abdominal Withdrawal Response (AWR) colorectal distension model, and has been used to assess the analgesic and sedative properties of several new compounds, including IBS drugs Zhuo, M; Gebhart, G. F. Facilitation and attenuation of a visceral nociceptive reflex from the rostroventral medulla in the rat. Gastroenterology, 2002, 122 1007-1019; Larsson, M. H.; Rapp, L.; Lindström, E. Effect of DSS-induced colitis on visceral sensitivity to colorectal distension in mice. Neurogastroenterology & Motility, 2006, 18, 144-152; Arvidsson, S.; Larsson, M.; Larsson, H.; Lindström, E.; Martinez, V. J. Pain, 2006, 7, 108-118; Jones, R. C. W.; Gebhart, G. F. Models of Visceral Pain: Colorectal Distension (CRD). Currrent Protocols in Pharmacology, 2004, 5.36, DOI: 10.1002/0471141755.ph0536s25.]
Three groups of 10 male mice (C57Bl6) were used: 2 groups received treatments with […] and one group received their vehicle […].
The groups were divided as follows: • i. 2 groups of 10 mice received an oral administration of Example 20 at two doses, 30 and 60 mg/kg. • ii. 1 group of 10 mice received an oral administration of the vehicle (PEG 200) use to administer Example 20.
All groups were implanted with electrodes in the abdominal external oblique musculature under anaesthesia. The surgery for electrode implantation was performed 5 days before the day of the experiment. The day of the experiment, colorectal distension (CRD) was performed in all animals, by inserting a balloon (10-mm long) into the colon, at 5 mm from the anus. The balloon was inflated with warm water, in a stepwise manner, from 0 to 60 mm Hg, with 15 mm Hg increments. […] At various times after these treatments: 2, 4 and 6-hours, the same series of stepwise CRD were performed and electromyographic responses (VMR in millivolts/sec) were recorded.

[6] = male rats, single oral dose 250, 500 or 1000 mg/kg

Q: Which results are given for CCC(COC(=O)c1cc(OC)c(OC)c(OC)c1)(c1ccccc1)N(C)C.NC(=S)c1cccc(S(=O)(=O)O)c1 (stereo not drawn) [Example 20]?
A: bodyweight (Beagle dogs [1]): no change in bodyweight; death (Beagle dogs [1]): no death reported; toxicity (Beagle dogs [1]): no indication of any toxicity; clinical observations, male dog (Beagle dogs [2]; 2,000 mg/kg p.o.): limited to vomiting a few min following dosing administration; clinical signs, female dog (Beagle dogs [2]; 2,000 mg/kg p.o.): Decreased activity level, vomiting, bowel movement, yellowish fluid fecal consistency, vocalization about 15-20 min post-dose, decreased respiration, weak behavior, eyes partially closed, and mild transient tremors; blood pressure, male dog (Beagle dogs [2]; 2,000 mg/kg p.o., 30 min post dose compared to pre-dose): dropped slightly; blood pressure, female dog (Beagle dogs [2]; 2,000 mg/kg p.o., approximately 30 min post dose): almost no change in blood pressure; time back to normal activity levels, female dog (Beagle dogs [2]; 2,000 mg/kg p.o., post dosing): approximately 1 hr; doses orally administered well tolerated (Beagle dogs [2]; Beagle dogs, oral gavage): up to 2,000 mg/kg; maximum tolerated dose (MTD) (Beagle dogs [2]; Beagle dogs, oral gavage, highest dose administered): 2,000 mg/kg; additional recovery as metabolite 3-cyanobenzenesulfonate ([3]; 2 mg/kg i.v.): 4.7%; recovery associated to 3-sulfobenzoate ([3]; 2 mg/kg i.v.): 0.6%; mean total recovery of the unchanged counter-ion ([3]; 2 mg/kg i.v.): about 72%; 3-sulfobenzoate in urine ([3]; 10 mg/kg p.o.): not detected; additional recovery as metabolite 3-cyanobenzenesulfonate ([3]; 10 mg/kg p.o.): 14.5%; recovery associated to 3-sulfobenzoate ([3]; 10 mg/kg p.o.): 1.7%; mean total recovery of the unchanged counter-ion ([3]; 10 mg/kg p.o.): about 61%; HPLC purity after storage [4]: > 99.7%; degradation [4]: no degradation had been observed; hematology parameters (male Sprague-Dawley rats; male rats, single oral dose): No significant changes; serum biochemistry variations compared to control (e.g., amylase, creatinine) (male Sprague-Dawley rats; male rats, single oral dose): minor, transient and remained within the normal range for the species; mortality or clinical signs (male Sprague-Dawley rats; [6]): No mortality or clinical signs were observed; tolerability (male Sprague-Dawley rats; [6]): well tolerated; necropsy findings (male Sprague-Dawley rats; rats sacrificed on Day 7, 500 or 1000 mg/kg p.o.): pale and/or enlarged lungs in a few animals; antinociceptive effects on colorectal distension induced pain ([5]; VMR mouse model, overall conclusion): significant antinociceptive effects; VMR response to colorectal distension compared to the control group ([5]; after 2 and 4 hours): overall reduction of the VMR response; VMR response to colorectal distension compared to the control group ([5]; at 6 hours, not statistically different from control): trend toward efficacy
